Laboratory results reported in ChEMBL document CHEMBL1201862, “PubChem BioAssay data set” (2004).
Calls of active or inactive are those of the source.

How the values were obtained:
[1] = target: DNA damage-inducible transcript 3 protein (Mus musculus, UniProt P35639); assay type: functional, Cricetulus griseus
Fatty acid synthase [2] = target: T1, Fatty acid synthase (Homo sapiens, UniProt P49327); assay: inhibition of human FAS-TE enzyme activity – biochemical, endpoint fluorescence intensity, uHTS hits, dose response (AID 624327); assay type: functional;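 also: fluorescence from hydrolysis of an O-methyl fluorescein acyl ester substrate by the enzyme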
Cytochrome P450 3A4 = Cytochrome P450 3A4 (Homo sapiens, UniProt P08684);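 also: CYP3A4 tested as one member of a cytochrome P450 panel screen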
[3] = fluconazole-exposed Candida albicans growth modulators – fluorescence, retest, confirmation (AID 2467); assay type: functional, cell-based
Fatty acid synthase [4] = target: T1, Fatty acid synthase; assay: inhibition of human FAS-TE enzyme activity – biochemical, kinetic fluorescence intensity, dose response (AID 624326); assay type: functional;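 also: rate of fluorescence rise from hydrolysis of a fluorogenic O-methyl fluorescein ester substrate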
[5] = NIH-3T3 fibroblast cytotoxicity, dose response, cytotoxicity control, cell-based, fluorescence, Alamar Blue, secondary assay (AID 2327); assay type: functional;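 also: NIH-3T3 mouse fibroblasts cultured with fluconazole at 8 µg/mL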
X-box-binding protein 1 = X-box-binding protein 1 (Homo sapiens, UniProt P17861); assay type: functional, Cricetulus griseus;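 also: confirmatory dose-response counter-screen serving a CHOP assay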
Coagulation factor XII = target: T2, Coagulation factor XII (Homo sapiens, UniProt P00748); assay type: functional;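 also: activated factor XIIa alpha cleaving a fluorogenic AMC peptide substrate; inhibitor potency from loss of enzyme activity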
T2 sequence (P00748 whole entry): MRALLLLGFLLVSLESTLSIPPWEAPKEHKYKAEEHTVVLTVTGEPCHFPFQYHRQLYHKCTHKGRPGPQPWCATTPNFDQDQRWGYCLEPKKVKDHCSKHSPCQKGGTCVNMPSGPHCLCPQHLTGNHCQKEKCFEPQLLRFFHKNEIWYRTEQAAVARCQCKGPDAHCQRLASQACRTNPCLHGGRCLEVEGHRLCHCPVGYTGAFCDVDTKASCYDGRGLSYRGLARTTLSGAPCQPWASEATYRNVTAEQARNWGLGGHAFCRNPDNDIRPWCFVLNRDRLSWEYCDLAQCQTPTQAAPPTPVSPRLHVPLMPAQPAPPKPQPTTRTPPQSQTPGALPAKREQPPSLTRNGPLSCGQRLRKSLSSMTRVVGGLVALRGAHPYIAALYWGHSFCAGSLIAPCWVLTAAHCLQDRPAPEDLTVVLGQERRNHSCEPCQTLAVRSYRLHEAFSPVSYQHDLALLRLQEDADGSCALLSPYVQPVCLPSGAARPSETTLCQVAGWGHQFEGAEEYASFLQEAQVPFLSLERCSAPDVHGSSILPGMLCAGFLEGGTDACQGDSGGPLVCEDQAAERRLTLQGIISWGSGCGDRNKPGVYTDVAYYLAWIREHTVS

Ion channel NompC = Ion channel NompC (Danio rerio, UniProt Q7T1G6); assay: Dose response cell-based high-throughput screening assay for agonists of the transient receptor potential channel N1 (TRPN1). [Related pubchem assays (depositor defined):AID1424, AID1448]; assay type: functional
Mucolipin-3 = target: T3, Mucolipin-3 (Homo sapiens, UniProt Q8TDD5); assay: Fluorescence counterscreen assay for […] agonists: dose response cell-based high-throughput screening assay to identify agonists of the transient receptor potential channel ML3 (TRPML3). [Related pubchem assays: 1424, 1448 ]; assay type: functional
T3 sequence (Q8TDD5 whole entry): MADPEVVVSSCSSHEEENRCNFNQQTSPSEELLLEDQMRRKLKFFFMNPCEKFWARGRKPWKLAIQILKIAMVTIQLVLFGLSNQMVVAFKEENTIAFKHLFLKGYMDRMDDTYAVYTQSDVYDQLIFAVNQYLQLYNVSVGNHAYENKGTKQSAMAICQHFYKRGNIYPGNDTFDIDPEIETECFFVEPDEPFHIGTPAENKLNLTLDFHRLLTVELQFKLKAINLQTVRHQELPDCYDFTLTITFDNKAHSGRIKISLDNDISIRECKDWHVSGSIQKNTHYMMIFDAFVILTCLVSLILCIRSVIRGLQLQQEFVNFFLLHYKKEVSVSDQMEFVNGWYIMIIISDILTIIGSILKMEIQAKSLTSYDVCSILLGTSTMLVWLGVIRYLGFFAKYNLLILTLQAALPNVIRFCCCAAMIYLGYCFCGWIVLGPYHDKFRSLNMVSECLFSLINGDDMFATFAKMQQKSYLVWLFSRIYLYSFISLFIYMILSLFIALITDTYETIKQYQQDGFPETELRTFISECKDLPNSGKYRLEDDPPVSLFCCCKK

[6] = non-specific 3'UTR reporter inhibition in Clone20-Shn3RL – cell-based, Renilla luciferase, cherry-picked, counter-screen for Shn3 inhibitor project, dose response (AID 624133); assay type: functional
[7] = reduction of Shn3 3'UTR-driven luciferase in osteoblasts – cell-based, Clone20 osteoblasts, firefly luciferase, cherry-picked, dose response (AID 624132); assay type: functional;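 also: firefly luciferase luminescence from reporter carrying the Shn3 3'UTR in osteoblasts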
[8] = target: E3 ubiquitin-protein ligase Mdm2/Protein Mdm4 (Homo sapiens, UniProt O15151+Q00987); assay: disruption of Mdm2/MdmX protein binding – luminescence detection, dose response (AID 504593); assay type: functional
INS1 = assay: INS-1E survival protection against cytokine death – cell-based, luminescence, retest, dose response (AID 449756); assay type: functional; details: Rattus norvegicus;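 also: cell death triggered by IL-1 beta plus TNF-alpha plus IFN-gamma mixture; protective hits raise ATP signal compared with cytokine alone wells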
[9] = loss of viability in HepG2 cells – cell-based, CellTiter-Glo, cherry-picked, cytotoxicity control for Shn3 inhibitor project, dose response (AID 624134); assay type: functional
[10] = target: G-protein coupled receptor 35 (Homo sapiens, UniProt Q9HC97); assay: SAR analysis of Antagonists of the GPR35 Receptor using an Image-Based Assay - Set 5. [Related pubchem assays (depositor defined):AID2058, AID2079]; assay type: functional
[11] = A Cell Based Secondary Assay To Explore Cytotoxicity of Compounds that Sensitize Mycobacterium Tuberculosis to Beta-Lactam Antibiotics.; assay type: functional
[12] = target: G-protein coupled receptor 55 (Homo sapiens, UniProt Q9Y2T6); assay: SAR Analysis of Selective Antagonists of GPR55 using an Image-Based Assay - Set 3. [Related pubchem assays (depositor defined):AID2058, AID2079]; assay type: functional
[13] = target: Alkaline phosphatase, tissue-nonspecific isozyme (Homo sapiens, UniProt P05186); assay: potency against alkaline phosphatase TNAP – biochemical, luminescent, dose response, SAR follow-up (AID 1056)
[14] = target: Alkaline phosphatase, placental type (Homo sapiens, UniProt P05187); assay: human placental alkaline phosphatase inhibition – biochemical, luminescence, confirmation (AID 1512); assay type: functional
[15] = target: T4, Kappa-type opioid receptor (Homo sapiens, UniProt P41145); assay: SAR analysis of Antagonists of the Kappa Opioid Receptor (KOR) using an Image-Based Assay - Set 4. [Related pubchem assays (depositor defined):AID1777, AID1785]; assay type: functional
[16] = target: T4, Kappa-type opioid receptor; assay: SAR analysis of small molecule antagonists of the kappa opioid receptor via a luminescent beta-arrestin assay - Set 6. [Related pubchem assays (depositor defined):AID1777, AID1778, AID1785, AID1786, AID1966, AID2133, AID2136, AID2285]; assay type: functional
[17] = target: T4, Kappa-type opioid receptor; assay: SAR analysis of small molecule antagonists of the kappa opioid receptor via a luminescent beta-arrestin assay - Set 3. [Related pubchem assays (depositor defined):AID1777, AID1778, AID1785, AID1786, AID1966, AID2133, AID2136, AID2285, AID2495]; assay type: functional
Mu-type opioid receptor = Mu-type opioid receptor (Homo sapiens, UniProt P35372); assay: SAR Analysis of Antagonists of the MOR Receptor using an Image-Based Assay - Set 3. [Related pubchem assays (depositor defined):AID1777, AID1785, AID1786, AID1966, AID2133, AID2136, AID2284, AID2285, AID2420]; assay type: functional
[18] = target: Delta-type opioid receptor (Homo sapiens, UniProt P41143); assay: SAR Analysis of Antagonists of the DOR Receptor using an Image-Based Assay - Set 3. [Related pubchem assays (depositor defined):AID1777, AID1785]; assay type: functional;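 also: U2OS cells expressing DOR1 and beta-arrestin GFP stimulated with 100 nM SNC80; imaging of GFP-tagged beta-arrestin moving into spots after receptor activation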
Delta-type opioid receptor, sequence (P41143 whole entry): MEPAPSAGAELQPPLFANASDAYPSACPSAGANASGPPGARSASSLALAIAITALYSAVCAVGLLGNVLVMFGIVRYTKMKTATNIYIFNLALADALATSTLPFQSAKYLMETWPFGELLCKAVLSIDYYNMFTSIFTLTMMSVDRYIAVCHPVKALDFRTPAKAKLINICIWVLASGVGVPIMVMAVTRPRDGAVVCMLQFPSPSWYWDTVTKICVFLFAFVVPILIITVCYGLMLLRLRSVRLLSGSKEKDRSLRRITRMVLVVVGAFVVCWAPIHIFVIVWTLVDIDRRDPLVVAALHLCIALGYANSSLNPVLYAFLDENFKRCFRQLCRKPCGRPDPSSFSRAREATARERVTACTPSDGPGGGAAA

T4 sequence (P41145 whole entry): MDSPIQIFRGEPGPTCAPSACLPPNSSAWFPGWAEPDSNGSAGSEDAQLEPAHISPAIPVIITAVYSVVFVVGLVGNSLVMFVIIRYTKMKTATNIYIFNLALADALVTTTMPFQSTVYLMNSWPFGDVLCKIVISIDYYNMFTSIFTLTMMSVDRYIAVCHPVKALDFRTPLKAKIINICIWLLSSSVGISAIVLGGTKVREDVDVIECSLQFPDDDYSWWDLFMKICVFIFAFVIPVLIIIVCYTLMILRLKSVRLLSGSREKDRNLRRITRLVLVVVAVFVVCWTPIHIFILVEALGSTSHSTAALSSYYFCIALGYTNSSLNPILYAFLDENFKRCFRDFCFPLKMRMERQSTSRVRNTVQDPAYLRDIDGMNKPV
T1 sequence (P49327 whole entry): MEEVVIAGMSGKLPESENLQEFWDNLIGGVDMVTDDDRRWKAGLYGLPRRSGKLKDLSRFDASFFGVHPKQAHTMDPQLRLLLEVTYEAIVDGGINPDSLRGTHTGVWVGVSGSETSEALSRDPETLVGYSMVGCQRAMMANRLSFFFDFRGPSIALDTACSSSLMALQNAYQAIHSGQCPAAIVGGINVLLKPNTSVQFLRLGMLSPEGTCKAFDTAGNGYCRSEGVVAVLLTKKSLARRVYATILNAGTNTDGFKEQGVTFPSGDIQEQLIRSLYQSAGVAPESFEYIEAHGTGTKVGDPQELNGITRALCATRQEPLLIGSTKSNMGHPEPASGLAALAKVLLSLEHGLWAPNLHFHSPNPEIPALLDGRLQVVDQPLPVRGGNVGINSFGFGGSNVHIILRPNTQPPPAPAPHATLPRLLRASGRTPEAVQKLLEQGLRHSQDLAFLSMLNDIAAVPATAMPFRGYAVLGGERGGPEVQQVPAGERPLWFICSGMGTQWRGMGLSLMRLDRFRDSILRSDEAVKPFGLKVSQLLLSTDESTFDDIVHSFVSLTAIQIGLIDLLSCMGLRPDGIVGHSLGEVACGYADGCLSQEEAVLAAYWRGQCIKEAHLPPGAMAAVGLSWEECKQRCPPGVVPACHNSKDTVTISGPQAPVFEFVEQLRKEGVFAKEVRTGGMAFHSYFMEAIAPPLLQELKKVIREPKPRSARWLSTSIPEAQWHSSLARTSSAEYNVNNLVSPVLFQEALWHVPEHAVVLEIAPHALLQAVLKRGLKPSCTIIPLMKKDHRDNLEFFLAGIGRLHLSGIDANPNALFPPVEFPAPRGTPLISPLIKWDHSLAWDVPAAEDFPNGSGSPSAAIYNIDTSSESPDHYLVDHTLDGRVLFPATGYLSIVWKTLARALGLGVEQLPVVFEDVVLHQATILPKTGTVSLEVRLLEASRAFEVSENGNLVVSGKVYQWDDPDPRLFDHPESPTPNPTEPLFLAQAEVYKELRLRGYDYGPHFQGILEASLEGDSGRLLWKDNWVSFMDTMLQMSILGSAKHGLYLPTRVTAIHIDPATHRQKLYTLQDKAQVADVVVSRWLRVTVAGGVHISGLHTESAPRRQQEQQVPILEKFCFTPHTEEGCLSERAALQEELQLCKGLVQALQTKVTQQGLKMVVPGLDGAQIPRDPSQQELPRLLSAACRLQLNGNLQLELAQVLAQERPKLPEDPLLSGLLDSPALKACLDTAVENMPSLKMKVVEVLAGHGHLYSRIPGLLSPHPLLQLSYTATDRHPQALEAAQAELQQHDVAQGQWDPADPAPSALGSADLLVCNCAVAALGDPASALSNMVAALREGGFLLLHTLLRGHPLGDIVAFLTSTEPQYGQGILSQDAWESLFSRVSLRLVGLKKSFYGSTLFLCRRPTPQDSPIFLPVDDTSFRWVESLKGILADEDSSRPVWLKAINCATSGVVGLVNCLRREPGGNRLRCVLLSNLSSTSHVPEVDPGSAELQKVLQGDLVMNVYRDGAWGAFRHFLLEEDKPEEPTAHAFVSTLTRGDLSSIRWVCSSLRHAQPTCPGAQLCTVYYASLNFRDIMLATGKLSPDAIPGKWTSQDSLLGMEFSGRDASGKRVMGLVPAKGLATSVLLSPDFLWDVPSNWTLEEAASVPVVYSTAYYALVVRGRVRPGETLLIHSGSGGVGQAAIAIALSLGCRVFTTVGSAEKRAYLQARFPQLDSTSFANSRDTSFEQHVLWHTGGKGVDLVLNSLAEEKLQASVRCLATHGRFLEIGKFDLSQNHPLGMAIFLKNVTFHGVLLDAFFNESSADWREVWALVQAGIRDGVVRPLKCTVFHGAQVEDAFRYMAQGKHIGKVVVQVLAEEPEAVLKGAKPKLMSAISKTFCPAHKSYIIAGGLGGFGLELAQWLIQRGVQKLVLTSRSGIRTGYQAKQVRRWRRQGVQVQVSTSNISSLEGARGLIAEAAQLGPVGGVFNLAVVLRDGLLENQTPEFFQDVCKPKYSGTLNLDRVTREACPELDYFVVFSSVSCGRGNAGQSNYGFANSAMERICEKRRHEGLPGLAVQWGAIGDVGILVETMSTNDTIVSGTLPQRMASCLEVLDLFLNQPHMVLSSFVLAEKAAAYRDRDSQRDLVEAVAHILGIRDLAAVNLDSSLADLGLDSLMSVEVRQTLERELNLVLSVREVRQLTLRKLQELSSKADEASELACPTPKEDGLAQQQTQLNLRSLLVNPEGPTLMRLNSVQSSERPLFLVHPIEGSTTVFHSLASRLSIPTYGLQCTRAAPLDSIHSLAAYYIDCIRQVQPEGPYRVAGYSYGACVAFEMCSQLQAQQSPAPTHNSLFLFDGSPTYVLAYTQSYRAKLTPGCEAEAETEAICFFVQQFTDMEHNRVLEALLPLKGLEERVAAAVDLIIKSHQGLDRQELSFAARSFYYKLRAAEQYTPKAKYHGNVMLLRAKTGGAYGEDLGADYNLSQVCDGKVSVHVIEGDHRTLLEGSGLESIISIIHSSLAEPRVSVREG
Mu-type opioid receptor, sequence (P35372 whole entry): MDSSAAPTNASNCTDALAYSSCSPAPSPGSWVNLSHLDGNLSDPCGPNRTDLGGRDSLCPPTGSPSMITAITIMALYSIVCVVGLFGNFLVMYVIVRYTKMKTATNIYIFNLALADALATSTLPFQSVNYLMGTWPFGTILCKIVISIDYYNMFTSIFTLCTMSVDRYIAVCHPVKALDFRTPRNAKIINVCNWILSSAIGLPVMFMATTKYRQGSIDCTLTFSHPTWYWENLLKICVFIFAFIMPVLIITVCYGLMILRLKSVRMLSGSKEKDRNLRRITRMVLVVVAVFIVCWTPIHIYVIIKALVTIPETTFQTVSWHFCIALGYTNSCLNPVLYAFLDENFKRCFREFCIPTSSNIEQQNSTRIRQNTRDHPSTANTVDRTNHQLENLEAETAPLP
G-protein coupled receptor 35, sequence (Q9HC97 whole entry): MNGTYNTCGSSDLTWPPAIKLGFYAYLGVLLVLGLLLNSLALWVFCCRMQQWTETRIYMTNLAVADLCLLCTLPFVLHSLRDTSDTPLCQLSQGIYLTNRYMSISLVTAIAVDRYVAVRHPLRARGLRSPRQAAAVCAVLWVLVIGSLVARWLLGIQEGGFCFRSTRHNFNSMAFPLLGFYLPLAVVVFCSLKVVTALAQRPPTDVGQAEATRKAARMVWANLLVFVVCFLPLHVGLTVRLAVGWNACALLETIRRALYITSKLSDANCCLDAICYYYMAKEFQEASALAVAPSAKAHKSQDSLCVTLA
Alkaline phosphatase, tissue-nonspecific isozyme, sequence (P05186 whole entry): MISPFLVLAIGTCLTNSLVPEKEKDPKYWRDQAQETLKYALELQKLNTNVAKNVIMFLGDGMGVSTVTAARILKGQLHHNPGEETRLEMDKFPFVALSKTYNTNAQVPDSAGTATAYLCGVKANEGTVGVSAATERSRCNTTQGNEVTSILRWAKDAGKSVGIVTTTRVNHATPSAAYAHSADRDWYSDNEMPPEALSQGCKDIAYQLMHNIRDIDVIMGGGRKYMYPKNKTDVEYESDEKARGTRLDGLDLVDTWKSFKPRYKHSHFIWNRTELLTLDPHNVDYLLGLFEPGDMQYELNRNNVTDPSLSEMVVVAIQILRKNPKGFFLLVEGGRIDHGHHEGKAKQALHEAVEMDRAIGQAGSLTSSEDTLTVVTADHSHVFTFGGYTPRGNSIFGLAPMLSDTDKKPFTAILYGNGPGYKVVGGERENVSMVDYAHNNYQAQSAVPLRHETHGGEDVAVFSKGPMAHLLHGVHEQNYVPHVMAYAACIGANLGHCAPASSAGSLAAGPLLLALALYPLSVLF
Cytochrome P450 3A4, sequence (P08684 whole entry): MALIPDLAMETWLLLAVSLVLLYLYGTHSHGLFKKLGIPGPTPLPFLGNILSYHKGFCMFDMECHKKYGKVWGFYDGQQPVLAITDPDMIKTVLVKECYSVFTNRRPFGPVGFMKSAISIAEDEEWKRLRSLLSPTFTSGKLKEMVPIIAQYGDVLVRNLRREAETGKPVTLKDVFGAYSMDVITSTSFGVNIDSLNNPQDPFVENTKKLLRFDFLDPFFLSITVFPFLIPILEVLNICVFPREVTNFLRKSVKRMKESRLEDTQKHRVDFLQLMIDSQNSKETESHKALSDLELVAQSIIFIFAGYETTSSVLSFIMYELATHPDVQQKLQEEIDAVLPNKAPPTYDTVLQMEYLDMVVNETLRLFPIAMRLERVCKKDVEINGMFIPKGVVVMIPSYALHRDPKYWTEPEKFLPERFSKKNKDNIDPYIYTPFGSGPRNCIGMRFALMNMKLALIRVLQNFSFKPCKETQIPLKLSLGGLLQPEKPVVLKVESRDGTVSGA

Compound: Cc1cc(C)c(C)c(S(=O)(=O)ON2C(=O)c3ccccc3C2=O)c1C
- Absolute IC50 (CHOP) [1]: 10 µM
- IC50 (Fatty acid synthase [2]): 0.61 µM (active)
- AC50 (Cytochrome P450 3A4): 39.8 µM (inconclusive)
- EC50 [3]: 4.78 µM (active)
- IC50 (Fatty acid synthase [4]): 0.417 µM (active)
- EC50 [5]: 3.15 µM (inconclusive)
- Absolute IC50 (XBP1) (X-box-binding protein 1): 10 µM
- IC50 (Coagulation factor XII): 12.9 µM (active)

Compound: N#C/C(=C(/O)C(Cl)(Cl)Cl)c1nc2ccccc2[nH]1
- EC50 (Ion channel NompC): > 29.9 µM (inactive)
- EC50 (Mucolipin-3): > 29.9 µM (not active)

Compound: CCOc1cc(N2CCOCC2)c(OCC)cc1NC(=O)COc1cccc2cccnc12
- AC50 [6]: 5.04 µM (active)
- EC50 [3]: > 38 µM (not active)
- AC50 [7]: 2.41 µM (active)
- EC50 [5]: > 150 µM (inactive)
- IC50 [8]: 4.99 µM (active)
- AC50 (INS1): 3.83 µM (active)
- AC50 [9]: 8.92 µM (active)

Compound: COC(=O)c1cnn(-c2ccccc2)c1/C=N/NC(=S)Nc1ccc(Cl)cc1
- IC50 [10]: 0.319 µM (active)
- CC50 [11]: > 40 µM (active)
- IC50 [12]: > 32 µM (inactive)

Compound: COc1ccc(C(=O)CSc2nc3cc(C)c(C)cc3[nH]2)cc1OC
- IC50 [13]: > 100 µM (inactive)
- IC50 [14]: > 100 µM (inactive)

Compound: O=C(Cn1c(=O)c2cccn2c2cccnc21)NCCCN1CCN(c2ccc(Cl)cc2)CC1
- IC50 [15]: 0.096 µM (active)
- IC50 [16]: 6.93 µM (active)
- IC50 [17]: 3.44 µM (active)
- IC50 (Mu-type opioid receptor): > 32 µM (inactive)
- IC50 [18]: > 32 µM (inactive)
